Here are results for one substance from patent US7892831B2, “Method for in vitro mass culture of Aloe vera” (priority 2006, dated 2011).

This experiment concerns regenerated Aloe vera shoots. Briefly: in vitro rooting of regenerated Aloe vera shoots. The conditions noted are these: MS supplemented with IAA (0.5, 1.0 or 2.0 mg/L); hormone-free media gave 100% rooting in 3 weeks. Format: cell-based, Aloe vera (Aloe barbadensis). How it is done: Regenerated shoots were rooted in both media containing indole acetic acid (0.5, 1.0, or 2.0 mg/L LAA) and MS media lacking any hormones. Shoots were more successfully rooted in the MS media lacking hormones. The culture conditions were the same as those used for initiation.

On to indole acetic acid [IAA], for which the rooting of shoots result is “no rooting was observed”.
